The values below come from PMC9739180, “Discovery of a Flavonoid FM04 as a Potent Inhibitor to Reverse P-Glycoprotein-Mediated Drug Resistance in Xenografts and Improve Oral Bioavailability of Paclitaxel” (International Journal of Molecular Sciences, 2022).

The nature of data set [1]: Pharmacokinetics of PTX and FM04 after oral co-administration. The data set is classed as in vivo, Balb/c mice. As to conditions: mice. On the procedure:
Pharmacokinetics (PK) study of PTX or FM04 after their oral co-administration. […] PTX (20 or 70 mg/kg) was orally co-administered with FM04 (0, 22 or 45 mg/kg) to mice, plasma was collected at 30, 60, 120, 240 and 420 min, respectively. […] FM04 (45 or 100 mg/kg) was orally co-administered with PTX (0, 50 or 70 mg/kg) to mice, plasma was collected at 30, 60, 120, 240 and 420 min, respectively. The concentration FM04 at each time point was determined by UPLC-MS/MS Pharmacokinetic parameter AUC was calculated by the pharmacokinetic software-Summit® PK solutions 2.0 (Summit Research Service, Ashland, Wilmington, DE, USA).
PTX drug solution was prepared in 5% Cremophor EL, 5% ethanol and 90% saline on the day of the experiment. PTX + FM04 drug solution was prepared in 7% Cremophor EL, 8% ethanol and 85% saline on the day of the experiment. PTX drug solution or PTX + FM04 mixture drug solution was administered to the Balb/c mice (female, 4–6 week-old) via oral gavage. Blood was collected via cardiac puncture at scheduled time points (10, 30, 60, 120, 240 and 420 min) under deep anesthesia. All animals were terminated at the end of the experiment. Plasma concentrations of FM04 and PTX were detected using UPLC-MS/MS. Plasma concentration–time profiles were analyzed by non-compartmental analysis (NCA). The area under the plasma concentration–time curve by trapezoid rules (AUC) (from 0 to infinity), the terminal half-life (t1/2β), initial half-life (t1/2α), mean residence time (MRT), maximum observed concentration (Cmax) and time to maximum concentration (Tmax) were calculated by PK Solutions 2.0 (Summit Research Service, Ashland, Wilmington, DE, USA).
PTX and its internal standard (IS) separation were performed on Agilent 1290 series UPLC coupled with Agilent 6460 Triple quadrupole. The calibration curve of PTX was constructed by quantifying the known amount of PTX that spiked to blank mice plasma following identical sample preparation. The mass spectrometer was configured in ESI + ionization mode monitoring MRM ion transition of m/z 854 > 286 (PTX) and m/z 882 > 314 (IS). Source parameters were as follows, gas temp (350 °C), gas flow (8 L/min), nebulizer (35 psi) and capillary (4000 V). UPLC chromatographic separation was performed on Waters Acquity UPLC BEH C18 (1.7 µM, 2.1 × 50 mm) with a 5 min gradient elution of 30% acetonitrile with 0.1% formic acid to 76% ACN with 0.1% formic acid. Milli-Q with 0.1% formic acid was used as the aqueous phase. Each separation and re-equilibration were completed in 9 min.
Detection and quantification of FM04 and its internal standard were done by using the UPLC-MS/MS system consist of an Acquity Waters UPLC interfaced with a triple quadrupole mass spectrometer (Micromass model Quattro Ultima) equipped with an electrospray ionization source in positive mode. The desolvation temperature, capillary voltage, cone gas and desolvation gas were 350 °C, 3 Kv, 150 L/h and 600 L/h, respectively. Multiple reaction monitoring (MRM) was set to monitor the transitions from 416 > 239 (FM04) and 423 > 239 (IS). Chromatography separation was done with an Acquity UPLC BEH C8 column (2.1 × 50 mm, 1.7 µM). The mobile phase consisted of methanol + 0.1% formic acid (solvent B) and Milli-Q water + 0.1% formic acid (solvent A). The flow rate was 0.4 mL/min. The initial condition was 90% solvent A and 10% solvent B. After 1 min elution by the initial condition, a linear gradient was performed with solvent B increasing from 10% to 100% for 10 min. Afterwards, the mobile phase was restored to the initial condition for re-equilibration. The total analysis time was 20 min per injection.

Data set [2] has as its system LCC6 cells. Nature of the data set: IC50 of anticancer drugs in wild-type LCC6 with or without FM04. The data set is classed as cell-based, human. The text has this:
Table S1. IC50 of anticancer drugs in LCC6 and LCC6MDR and P-gp modulating activity of FM04.
fold): IC50 of an anticancer drug of LCC6MDR without FM04/IC50 of an anticancer of LCC6 with or without
FM04 or LCC6MDR with FM04. N = 2 - 8 independent experiment. The IC50 values were presented as mean ±
standard error mean. /: not determined.

The mark [3] stands for this setting: oral, PTX 20 mg/kg + FM04 45 mg/kg, relative to 20 mg/kg PTX alone.
Where [4] appears, read: oral, PTX 70 mg/kg + FM04 22 mg/kg, relative to 70 mg/kg PTX alone.
Setting [5] is: oral, PTX 70 mg/kg + FM04 45 mg/kg, relative to 70 mg/kg PTX alone.

SMILES strings stand for the structures. Where two headings read alike, the source gives them in different places.

Regarding `O=c1cc(-c2ccc(OCCOCCNCc3ccccc3)cc2)oc2ccccc12` [FM04, 2-(4-(2-(2-(benzylamino)ethoxy)ethoxy)phenyl)-4H-chromen-4-one], the AUC(0-t) in data set [1] (female, Balb/c, mouse, plasma, po, 100 mg/kg, oral, FM04 100 mg/kg, PTX 0 mg/kg, read-out: FM04 AUC(0-t) (converted)) is 1820 ng·h/mL; in data set [1] (female, Balb/c, mouse, plasma, po, oral, FM04 45 mg/kg + PTX 50 mg/kg, read-out: FM04 AUC(0-t) (converted)), 645 ng·h/mL; in data set [1] (female, Balb/c, mouse, plasma, po, oral, FM04 45 mg/kg + PTX 70 mg/kg, read-out: FM04 AUC(0-t) (converted)), 740 ng·h/mL. In addition, the Cmax in data set [1] (female, Balb/c, mouse, plasma, po, 100 mg/kg, oral, FM04 100 mg/kg, PTX 0 mg/kg, read-out: FM04 Cmax) amounted to 1020 ng/mL; in data set [1] (female, Balb/c, mouse, plasma, po, oral, FM04 45 mg/kg + PTX 50 mg/kg, read-out: FM04 Cmax) it was 754 ng/mL; in data set [1] (female, Balb/c, mouse, plasma, po, oral, FM04 45 mg/kg + PTX 70 mg/kg, read-out: FM04 Cmax), 481 ng/mL. For the same compound, the time of peak concentration (Tmax) in data set [1] (female, Balb/c, mouse, plasma, po, 100 mg/kg, oral, FM04 100 mg/kg, PTX 0 mg/kg, read-out: FM04 Tmax (converted)) was 30 min; in data set [1] (female, Balb/c, mouse, plasma, po, oral, FM04 45 mg/kg + PTX 50 mg/kg, read-out: FM04 Tmax (converted)), 30 min; in data set [1] (female, Balb/c, mouse, plasma, po, oral, FM04 45 mg/kg + PTX 70 mg/kg, read-out: FM04 Tmax (converted)), 60 min. For the same compound, in data set [1] (female, Balb/c, mouse, plasma, FM04 100 mg/kg oral alone, at 720 min, read-out: minimum plasma concentration of FM04), the concentration at 720 min amounted to 43 ng/mL. Moreover, the “oral absorption of FM04” value in data set [1] (FM04 100 mg/kg oral alone) is recorded as < 0.005%. The “chemosensitization of wild-type LCC6 towards PTX, vinblastine and vincristine” value in data set [2] (FM04 1 μM) is on record as “did not chemosensitize the wild-type LCC6 cells”.
As for `CC(=O)O[C@H]1C(=O)[C@@]2(C)[C@H]([C@H](OC(=O)c3ccccc3)[C@]3(O)C[C@H](OC(=O)[C@H](O)[C@@H](NC(=O)c4ccccc4)c4ccccc4)C(C)=C1C3(C)C)[C@]1(OC(C)=O)CO[C@@H]1C[C@@H]2O` [PTX, paclitaxel], the AUC is 9400 ng·h/mL in data set [1] (female, Balb/c, mouse, plasma, po, 20 mg/kg, oral, PTX 20 mg/kg + FM04 45 mg/kg); 143 ng·h/mL in data set [1] (female, Balb/c, mouse, plasma, po, 20 mg/kg, PTX 20 mg/kg alone); 30000 ng·h/mL in data set [1] (female, Balb/c, mouse, plasma, po, 70 mg/kg, oral, PTX 70 mg/kg + FM04 45 mg/kg); 523 ng·h/mL in data set [1] (female, Balb/c, mouse, plasma, po, 70 mg/kg, PTX 70 mg/kg alone); 15500 ng·h/mL in data set [1] (female, Balb/c, mouse, plasma, po, oral, PTX 70 mg/kg + FM04 22 mg/kg). The Cmax in data set [1] (female, Balb/c, mouse, plasma, po, 20 mg/kg, oral, PTX 20 mg/kg, FM04 0 mg/kg, read-out: PTX Cmax) came to 134 ng/mL; in data set [1] (female, Balb/c, mouse, plasma, po, 70 mg/kg, oral, PTX 70 mg/kg, FM04 0 mg/kg, read-out: PTX Cmax) it was 186 ng/mL; in data set [1] (female, Balb/c, mouse, plasma, po, oral, PTX 20 mg/kg + FM04 45 mg/kg, read-out: PTX Cmax), 3510 ng/mL; in data set [1] (female, Balb/c, mouse, plasma, po, oral, PTX 70 mg/kg + FM04 22 mg/kg, read-out: PTX Cmax), 4950 ng/mL; in data set [1] (female, Balb/c, mouse, plasma, po, oral, PTX 70 mg/kg + FM04 45 mg/kg, read-out: PTX Cmax), 9760 ng/mL. Further, the AUC(0-t) was 523 ng·h/mL in data set [1] (female, Balb/c, mouse, plasma, po, 70 mg/kg, oral, PTX 70 mg/kg, FM04 0 mg/kg, read-out: PTX AUC(0-t) (converted)); 9400 ng·h/mL in data set [1] (female, Balb/c, mouse, plasma, po, oral, PTX 20 mg/kg + FM04 45 mg/kg, read-out: PTX AUC(0-t) (converted)); 15500 ng·h/mL in data set [1] (female, Balb/c, mouse, plasma, po, oral, PTX 70 mg/kg + FM04 22 mg/kg, read-out: PTX AUC(0-t) (converted)); 30000 ng·h/mL in data set [1] (female, Balb/c, mouse, plasma, po, oral, PTX 70 mg/kg + FM04 45 mg/kg, read-out: PTX AUC(0-t) (converted)). Moreover, the Tmax in data set [1] (female, Balb/c, mouse, plasma, oral, PTX 20 mg/kg + FM04 45 mg/kg, read-out: PTX Tmax (converted)) was 120 min. Further, the “PTX AUC/Dose fold-change vs PTX alone” value in data set [1] (setting [3]) is reported as 66; in data set [1] (setting [4]), 30; in data set [1] (setting [5]) it was 57. For the same compound, the “PTX Cmax fold-change vs PTX alone” value in data set [1] (setting [3]) is on record as 26; in data set [1] (setting [4]), 27; in data set [1] (setting [5]), 53. The “oral absorption of PTX” value in data set [1] (oral PTX 70 mg/kg with FM04 22 mg/kg) was found to be 6.6%; in data set [1] (oral PTX with FM04 45 mg/kg) it was 14%; in data set [1] (oral PTX without FM04) it was 0.2%. In addition, in data set [2] (Homo sapiens, LCC-6, wild-type LCC6, no modulator, read-out: IC50 of anticancer drug, LCC6 + DMSO), the half-maximal inhibitory concentration (IC50) was found to be 2.1 ± 0.5 nM. The “RF, LCC6 + DMSO” value in data set [2] (IC50 in LCC6MDR without FM04 / IC50 in LCC6) is listed as 61.7. Also, the “RF, LCC6 + 1 μM FM04” value in data set [2] (IC50 in LCC6MDR without FM04 / IC50 in LCC6 with FM04) is given as 43.2.
